# According to patent publication US20250073340A1, “SPIROCYCLIC MDM2 MODULATOR AND USES THEREOF” (Newave Pharmaceutical Inc., priority 2021, published 2025):
# Columns and labels:
# [1] = system: BCL-2-dependent acute lymphoblastic leukemia (ALL) cell line RS4;11 overexpressing Bcl-2 G101V; assay: cells; assay type: cell-based; settings: Homo sapiens, RS4-11; about 72 hours, ATPlite luminescence; read-out: RS4;11-G101V IC50
# Method: Biological Example 2: In vitro Anti-proliferation Assay in BCL-2-dependent acute lymphoblastic leukemia (ALL) cell line RS4; 11 overexpressing Bcl-2 G101V
# Cell antiproliferation was assayed by PerkinElmer ATPlite™ Luminescence Assay System. Briefly, the various test cancer cell lines were plated at a density of about 1×10^4 cells per well in Costar 96-well plates, and were incubated with different concentrations of compounds for about 72 hours in medium supplemented with 5% FBS or 10% normal human serum (NHS). One lyophilized substrate solution vial was then reconstituted by adding 5 mL of substrate buffer solution, and was agitated gently until the solution was homogeneous. About 50 μL of mammalian cell lysis solution was added to 100 μL of cell suspension per well of a microplate, and the plate was shaken for about five minutes in an orbital shaker at −700 rpm. This procedure was used to lyse the cells and to stabilize the ATP. Next, 50 μL substrate solution was added to the wells and microplate was shaken for five minutes in an orbital shaker at −700 rpm. Finally, the luminescence was measured by a PerkinElmer TopCount® Microplate Scintillation Counter. Such assays, carried out with a range of doses of test compounds, allowed the determination of the cellular anti-antiproliferative IC50 of the compounds of the present invention.
# MDM2 = MDM2 (Homo sapiens (Human), UniProt Q00987); assay: In vitro MDM2 HTRF assay (inhibition of p53-MDM2 interaction); assay type: binding; settings: GST-MDM2 / biotinylated p53 peptide
# Sequence of MDM2 (Q00987 whole entry): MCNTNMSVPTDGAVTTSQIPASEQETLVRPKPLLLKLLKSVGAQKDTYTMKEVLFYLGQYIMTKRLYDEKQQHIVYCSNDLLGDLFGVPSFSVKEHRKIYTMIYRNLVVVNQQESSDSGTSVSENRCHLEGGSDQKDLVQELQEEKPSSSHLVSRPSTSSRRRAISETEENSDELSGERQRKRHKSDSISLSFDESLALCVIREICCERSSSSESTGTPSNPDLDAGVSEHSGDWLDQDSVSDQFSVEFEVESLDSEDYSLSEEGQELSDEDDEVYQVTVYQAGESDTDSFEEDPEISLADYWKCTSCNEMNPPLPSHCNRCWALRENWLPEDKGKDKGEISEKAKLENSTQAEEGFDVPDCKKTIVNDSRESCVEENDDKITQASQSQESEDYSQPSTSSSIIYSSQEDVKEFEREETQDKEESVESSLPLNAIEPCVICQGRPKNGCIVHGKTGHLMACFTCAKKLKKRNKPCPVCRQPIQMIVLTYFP
SMILES,IC50 [1],IC50 (MDM2)
"COc1cc(N2CCC3(CC2)CC([C@@H]2C[C@H]2C#Cc2cccc4c2CN(C2CCC(=O)NC2=O)C4=O)C3)ccc1NC(=O)[C@@H]1N[C@@H](CC(C)(C)C)[C@@]2(CNc3cc(Cl)ccc32)[C@H]1c1cccc(Cl)c1F (stereo partly drawn) [Example 22, (2′S,3S,4′S,5′R)-6-chloro-4′-(3-chloro-2-fluorophenyl)-N-(4-(2-((1S,2R)-2-((2-(2,6-dioxopiperidin-3-yl)-1-oxoisoindolin-4-yl)ethynyl)cyclopropyl)-7-azaspiro[3.5]nonan-7-yl)-2-methoxyphenyl)-2′-neopentylspiro[indoline-3,3′-pyrrolidine]-5′-carboxamide]",> 1000 nM,272 nM
"COc1cc(N2CCC3(CC2)CC([C@H]2C[C@@H]2C#Cc2cccc4c2CN(C2CCC(=O)NC2=O)C4=O)C3)ccc1NC(=O)[C@@H]1N[C@@H](CC(C)(C)C)[C@@]2(CNc3cc(Cl)ccc32)[C@H]1c1cccc(Cl)c1F (stereo partly drawn) [Example 23, (2′S,3S,4′S,5′R)-6-chloro-4′-(3-chloro-2-fluorophenyl)-N-(4-(2-((1R,2S)-2-((2-(2,6-dioxopiperidin-3-yl)-1-oxoisoindolin-4-yl)ethynyl)cyclopropyl)-7-azaspiro[3.5]nonan-7-yl)-2-methoxyphenyl)-2′-neopentylspiro[indoline-3,3′-pyrrolidine]-5′-carboxamide]",> 1000 nM,169 nM
"COc1cc(C(=O)N2CCC[C@H](CC#Cc3cccc4c3CN(C3CCC(=O)NC3=O)C4=O)C2)ccc1NC(=O)[C@@H]1N[C@@H](CC(C)(C)C)[C@@]2(CNc3cc(Cl)ccc32)[C@H]1c1cccc(Cl)c1F (stereo partly drawn) [Example 24, (2′S,3S,4′S,5′R)-6-chloro-4′-(3-chloro-2-fluorophenyl)-N-(4-((3R)-3-(3-(2-(2,6-dioxopiperidin-3-yl)-1-oxoisoindolin-4-yl)prop-2-yn-1-yl)piperidine-1-carbonyl)-2-methoxyphenyl)-2′-neopentylspiro[indoline-3,3′-pyrrolidine]-5′-carboxamide]",21.1 nM,2.97 nM
"COc1cc(C(=O)N2CCC[C@@H](CC#Cc3cccc4c3CN(C3CCC(=O)NC3=O)C4=O)C2)ccc1NC(=O)[C@@H]1N[C@@H](CC(C)(C)C)[C@@]2(CNc3cc(Cl)ccc32)[C@H]1c1cccc(Cl)c1F (stereo partly drawn) [Example 25, (2′S,3S,4′S,5′R)-6-chloro-4′-(3-chloro-2-fluorophenyl)-N-(4-((3S)-3-(3-(2-(2,6-dioxopiperidin-3-yl)-1-oxoisoindolin-4-yl)prop-2-yn-1-yl)piperidine-1-carbonyl)-2-methoxyphenyl)-2′-neopentylspiro[indoline-3,3′-pyrrolidine]-5′-carboxamide]",21.6 nM,3.72 nM
"COc1cc(N2CCC([C@@H]3C[C@H]3C#Cc3cccc4c3CN(C3CCC(=O)NC3=O)C4=O)CC2)ccc1NC(=O)[C@@H]1N[C@@H](CC(C)(C)C)[C@@]2(CNc3cc(Cl)ccc32)[C@H]1c1cccc(Cl)c1F (stereo partly drawn) [Example 26, (2′S,3S,4′S,5′R)-6-chloro-4′-(3-chloro-2-fluorophenyl)-2′-(2,2-dimethylpropyl)-N-(4-{4-[(1S,2R)-2-{2-[2-(2,6-dioxopiperidin-3-yl)-1-oxo-3H-isoindol-4-yl]ethynyl}cyclopropyl]piperidin-1-yl}-2-methoxyphenyl)-1,2-dihydrospiro[indole-3,3′-pyrrolidine]-5′-carboxamide]",448 nM,46.8 nM
"COc1cc(N2CCC([C@H]3C[C@@H]3C#Cc3cccc4c3CN(C3CCC(=O)NC3=O)C4=O)CC2)ccc1NC(=O)[C@@H]1N[C@@H](CC(C)(C)C)[C@@]2(CNc3cc(Cl)ccc32)[C@H]1c1cccc(Cl)c1F (stereo partly drawn) [Example 27, (2′S,3S,4′S,5′R)-6-chloro-4′-(3-chloro-2-fluorophenyl)-2′-(2,2-dimethylpropyl)-N-(4-{4-[(1R,2S)-2-{2-[2-(2,6-dioxopiperidin-3-yl)-1-oxo-3H-isoindol-4-yl]ethynyl}cyclopropyl]piperidin-1-yl}-2-methoxyphenyl)-1,2-dihydrospiro[indole-3,3′-pyrrolidine]-5′-carboxamide]",> 1000 nM,16.5 nM
"COc1cc(C(=O)N2CCCC[C@@H]2CCC#Cc2cccc3c2CN([C@@H]2CCC(=O)NC2=O)C3=O)ccc1NC(=O)[C@@H]1N[C@@H](CC(C)(C)C)[C@@]2(CNc3cc(Cl)ccc32)[C@H]1c1cccc(Cl)c1F [Example 36, (2′S,3S,4′S,5′R)-6-chloro-4′-(3-chloro-2-fluorophenyl)-2′-(2,2-dimethylpropyl)-N-{4-[(2R)-2-(4-{2-[(3R)-2,6-dioxopiperidin-3-yl]-1-oxo-3H-isoindol-4-yl}but-3-yn-1-yl)piperidine-1-carbonyl]-2-methoxyphenyl}-1,2-dihydrospiro[indole-3,3′-pyrrolidine]-5′-carboxamide]",35.4 nM,2.03 nM

# Further lines, results first:
IC50 [1],IC50 (MDM2),SMILES
83.2 nM,2.59 nM,"COc1cc(C(=O)N[C@H]2CCC[C@@H](C#Cc3cccc4c3CN(C3CCC(=O)NC3=O)C4=O)C2)ccc1NC(=O)[C@@H]1N[C@@H](CC(C)(C)C)[C@@]2(CNc3cc(Cl)ccc32)[C@H]1c1cccc(Cl)c1F (stereo partly drawn) [Example 32, (2′S,3S,4′S,5′R)-6-chloro-4′-(3-chloro-2-fluorophenyl)-2′-(2,2-dimethylpropyl)-N-(4-{[(1S,3R)-3-{2-[2-(2,6-dioxopiperidin-3-yl)-1-oxo-3H-isoindol-4-yl]ethynyl}cyclohexyl]carbamoyl}-2-methoxyphenyl)-1,2-dihydrospiro[indole-3,3′-pyrrolidine]-5′-carboxamide]"
104 nM,2.29 nM,"COc1cc(C(=O)N[C@@H]2CCC[C@H](C#Cc3cccc4c3CN(C3CCC(=O)NC3=O)C4=O)C2)ccc1NC(=O)[C@@H]1N[C@@H](CC(C)(C)C)[C@@]2(CNc3cc(Cl)ccc32)[C@H]1c1cccc(Cl)c1F (stereo partly drawn) [Example 33, (2′S,3S,4′S,5′R)-6-chloro-4′-(3-chloro-2-fluorophenyl)-2′-(2,2-dimethylpropyl)-N-(4-{[(1R,3S)-3-{2-[2-(2,6-dioxopiperidin-3-yl)-1-oxo-3H-isoindol-4-yl]ethynyl}cyclohexyl]carbamoyl}-2-methoxyphenyl)-1,2-dihydrospiro[indole-3,3′-pyrrolidine]-5′-carboxamide]"
122 nM,2 nM,"COc1cc(C(=O)N[C@@H]2CCC[C@@H](C#Cc3cccc4c3CN(C3CCC(=O)NC3=O)C4=O)C2)ccc1NC(=O)[C@@H]1N[C@@H](CC(C)(C)C)[C@@]2(CNc3cc(Cl)ccc32)[C@H]1c1cccc(Cl)c1F (stereo partly drawn) [Example 34, (2′S,3S,4′S,5′R)-6-chloro-4′-(3-chloro-2-fluorophenyl)-2′-(2,2-dimethylpropyl)-N-(4-{[(1R,3R)-3-{2-[2-(2,6-dioxopiperidin-3-yl)-1-oxo-3H-isoindol-4-yl]ethynyl}cyclohexyl]carbamoyl}-2-methoxyphenyl)-1,2-dihydrospiro[indole-3,3′-pyrrolidine]-5′-carboxamide]"
82.7 nM,3.74 nM,"COc1cc(C(=O)N[C@H]2CCC[C@H](C#Cc3cccc4c3CN(C3CCC(=O)NC3=O)C4=O)C2)ccc1NC(=O)[C@@H]1N[C@@H](CC(C)(C)C)[C@@]2(CNc3cc(Cl)ccc32)[C@H]1c1cccc(Cl)c1F (stereo partly drawn) [Example 35, (2′S,3S,4′S,5′R)-6-chloro-4′-(3-chloro-2-fluorophenyl)-2′-(2,2-dimethylpropyl)-N-(4-{[(1S,3S)-3-{2-[2-(2,6-dioxopiperidin-3-yl)-1-oxo-3H-isoindol-4-yl]ethynyl}cyclohexyl]carbamoyl}-2-methoxyphenyl)-1,2-dihydrospiro[indole-3,3′-pyrrolidine]-5′-carboxamide]"
34.4 nM,1.95 nM,"COc1cc(C(=O)N2CCCC[C@@H]2CCC#Cc2cccc3c2CN([C@H]2CCC(=O)NC2=O)C3=O)ccc1NC(=O)[C@@H]1N[C@@H](CC(C)(C)C)[C@@]2(CNc3cc(Cl)ccc32)[C@H]1c1cccc(Cl)c1F [Example 37, (2′S,3S,4′S,5′R)-6-chloro-4′-(3-chloro-2-fluorophenyl)-2′-(2,2-dimethylpropyl)-N-{4-[(2R)-2-(4-{2-[(3S)-2,6-dioxopiperidin-3-yl]-1-oxo-3H-isoindol-4-yl}but-3-yn-1-yl)piperidine-1-carbonyl]-2-methoxyphenyl}-1,2-dihydrospiro[indole-3,3′-pyrrolidine]-5′-carboxamide]"
67.9 nM,3.82 nM,"COc1cc(C(=O)N2CCCC[C@H]2CCC#Cc2cccc3c2CN([C@@H]2CCC(=O)NC2=O)C3=O)ccc1NC(=O)[C@@H]1N[C@@H](CC(C)(C)C)[C@@]2(CNc3cc(Cl)ccc32)[C@H]1c1cccc(Cl)c1F [Example 38, (2′S,3S,4′S,5′R)-6-chloro-4′-(3-chloro-2-fluorophenyl)-2′-(2,2-dimethylpropyl)-N-{4-[(2S)-2-(4-{2-[(3R)-2,6-dioxopiperidin-3-yl]-1-oxo-3H-isoindol-4-yl}but-3-yn-1-yl)piperidine-1-carbonyl]-2-methoxyphenyl}-1,2-dihydrospiro[indole-3,3′-pyrrolidine]-5′-carboxamide]"
